Test results as given in patent US20090029968A1, “QUINAZOLINE DERIVATIVES USED AS INHIBITORS OF ERBB TYROSINE KINASE” (priority 2005, published 2009).
pIC50: −log10 of the molar value.

Experiments:
EGFR tyrosine kinase = molecular target: T1, EGFR tyrosine kinase (Homo sapiens, UniProt P00533); assay: Test (a) protein tyrosine kinase phosphorylation assay, EGFR; format: biochemical; conditions: recombinant intracellular fragment, ATP at Km; read-out: IC50 Test (a): Inhibition of EGFR tyrosine kinase protein phosphorylation
T1 construct: Recombinant intracellular fragments of EGFR, erbB2 and erbB4; made in house; host or cells: baculovirus/Sf21 insect cells (cleared lysate used)
T1 sequence (P00533 669-1210 limits assumed): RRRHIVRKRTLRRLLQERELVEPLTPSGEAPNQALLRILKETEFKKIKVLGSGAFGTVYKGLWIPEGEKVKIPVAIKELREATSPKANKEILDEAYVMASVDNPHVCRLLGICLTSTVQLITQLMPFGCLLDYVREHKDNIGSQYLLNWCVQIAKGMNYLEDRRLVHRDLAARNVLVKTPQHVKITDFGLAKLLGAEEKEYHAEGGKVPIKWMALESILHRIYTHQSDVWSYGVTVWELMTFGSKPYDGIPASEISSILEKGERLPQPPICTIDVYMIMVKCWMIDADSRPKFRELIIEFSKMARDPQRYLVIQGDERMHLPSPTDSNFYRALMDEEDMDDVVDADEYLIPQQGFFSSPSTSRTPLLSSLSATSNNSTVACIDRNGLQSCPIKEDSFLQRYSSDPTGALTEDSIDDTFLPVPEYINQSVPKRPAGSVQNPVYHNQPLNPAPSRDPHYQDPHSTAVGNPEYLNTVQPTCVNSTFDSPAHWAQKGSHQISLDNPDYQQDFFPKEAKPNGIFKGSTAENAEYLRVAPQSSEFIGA
Experimental: (§1) a) Protein Tyrosine Kinase phosphorylation Assays
(§2) This test measures the ability of a test compound to inhibit the phosphorylation of a tyrosine containing polypeptide substrate by EGFR, erbB2 and erbB4 tyrosine kinase enzyme.
(§3) Recombinant intracellular fragments of EGFR, erbB2 and erbB4 (accession numbers X00588, X03363 and L07868 respectively) were cloned and expressed in the baculovirus/Sf21 system. […]
(§4) Constitutive kinase activity of these recombinant proteins was determined by their ability to phosphorylate a synthetic peptide (made up of a random co-polymer of Glutamic Acid, Alanine and Tyrosine in the ratio of 6:3:1). […]
(§5) The immobilised phospho-peptide product of the reaction was detected by immunological methods. […] After further washing, HRP activity in each well of the plate was measured […] using 22′-Azino-di-[3-ethylbenzthiazoline sulfonate (6)] diammonium salt crystals (ABTS™ from Roche) as a substrate.
(§6) Quantification of colour development and thus enzyme activity was achieved by the measurement of absorbance at 405 nm on a Molecular Devices ThermoMax microplate reader. Kinase inhibition for a given compound was expressed as an IC50 value. […] The range of phosphorylation was calculated from the positive (vehicle plus ATP) and negative (vehicle minus ATP) control values.

erbB2 tyrosine kinase = molecular target: T2, erbB2 tyrosine kinase (Homo sapiens, UniProt P04626); assay: Test (a) protein tyrosine kinase phosphorylation assay, erbB2; format: biochemical; conditions: recombinant intracellular fragment, ATP at Km; read-out: IC50 Test (a): Inhibition of erbB2 tyrosine kinase protein phosphorylation
T2 construct: Recombinant intracellular fragments of EGFR, erbB2 and erbB4; made in house; host or cells: baculovirus/Sf21 insect cells (cleared lysate used)
T2 sequence (P04626 676-1255 limits assumed): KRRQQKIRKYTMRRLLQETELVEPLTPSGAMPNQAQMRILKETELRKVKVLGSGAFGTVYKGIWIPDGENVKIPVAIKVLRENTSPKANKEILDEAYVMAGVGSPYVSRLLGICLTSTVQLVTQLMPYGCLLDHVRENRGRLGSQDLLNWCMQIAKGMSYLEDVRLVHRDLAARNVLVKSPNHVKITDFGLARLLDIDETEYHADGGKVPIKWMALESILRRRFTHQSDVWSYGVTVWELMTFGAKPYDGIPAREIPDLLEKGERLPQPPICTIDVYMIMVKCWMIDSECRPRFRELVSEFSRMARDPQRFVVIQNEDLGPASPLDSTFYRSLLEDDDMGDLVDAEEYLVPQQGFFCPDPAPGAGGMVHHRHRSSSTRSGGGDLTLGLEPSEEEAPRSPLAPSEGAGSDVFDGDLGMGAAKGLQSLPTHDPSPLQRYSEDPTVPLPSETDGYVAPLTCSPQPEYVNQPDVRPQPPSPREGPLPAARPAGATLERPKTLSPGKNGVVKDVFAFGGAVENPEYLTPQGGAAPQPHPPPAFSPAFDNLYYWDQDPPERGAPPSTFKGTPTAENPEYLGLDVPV
Experimental: as §1, §2, §3, §4, §5, §6

BT474C cells = assay: Test (e) BT474C cell proliferation assay; format: cell-based; conditions: Homo sapiens, 96 h, four-day MTS endpoint, read-out: IC50 Test (e): Inhibition of proliferation of BT474C cells
Excerpt: The BT-474 tumour cell line (human mammary carcinoma) was obtained from Dr Baselga (at Laboratorio Recerca Oncologica, Paseo Vall D'Hebron 119-129, Barcelona 08035, Spain). This cell line was subcloned and a certain population (hereinafter referred to as “BT474C”) was obtained.
e) BT474C Cell Proliferation Assay
BT474C cells are a sub-cloned population of in vivo competent cells, as discussed above.
The BT474C assay is a MTS (3-(4,5-dimethylthiazol-2-yl)-5-(3-carboxymethoxyphenyl)-2-(4-sulfophenyl)-2H-tetrazolium, inner salt—Promega G1111) endpoint-based cell proliferation assay, which measures the ability of a test compound to inhibit the proliferation of cells over a four-day period. […] Cell density is measured using a haemocytometer and viability is calculated using Trypan Blue solution before being further diluted in Assay Medium and seeded at a density of 1×10^4 cells per well (in 100 ul) into clear bottomed 96 well plates (Costar 3598). […] The plate is read at 490 nm on a spectrophotometer.
Assay plates are left at 37° C. for 4 days and then treated with MTS solution (as above), which is converted to a soluble formazan product by active cells. After incubating the plates for 2 hours the reaction is stopped by the addition of 10% SDS (Sodium dodecyl sulphate) and the plates are read at 490 nm on a spectrophotometer giving absorbance values relative to the concentration of converted dye. […]

pIC50 (EGFR tyrosine kinase)	pIC50 (erbB2 tyrosine kinase)	pIC50 (BT474C cells)	Structure (SMILES)
6.48	7.82	6.75	C[C@@H](Oc1cccc2ncnc(Nc3ccc(C(=O)N4CCCCCC4)c(Cl)c3)c12)C(=O)N(C)CCO [Example 1, (2R)-2-[(4-{[4-(azepan-1-ylcarbonyl)-3-chlorophenyl]amino}quinazolin-5-yl)oxy]-N-(2-hydroxyethyl)-N-methylpropanamide]
6.06	7.66	6.07	C[C@@H](Oc1cccc2ncnc(Nc3ccc(C(=O)N4CCCCC4)c(Cl)c3)c12)C(=O)N(C)CCO [Example 2, (2R)-2-[(4-{[3-chloro-4-(piperidin-1-ylcarbonyl)phenyl]amino}quinazolin-5-yl)oxy]-N-(2-hydroxyethyl)-N-methylpropanamide]
